According to patent US11065249B2, “Diacylglycerol acyl transferase 2 inhibitor” (Pfizer Inc., priority 2019, dated 2021):

Columns and labels:
human DGAT2 (hDGAT2) = human DGAT2 (hDGAT2) (Homo sapiens (Human), UniProt Q96PD7); test: In vitro DGAT2 assay, determination of IC50 values for DGAT2 inhibitors; format: biochemical; conditions: inhibition of DGAT2, hDGAT2 membrane fractions; geometric mean
Procedure: Recombinant baculovirus for the FLAG-tagged hDGAT2 was generated in SF9 insect cells using Bac-to-Bac baculovirus expression system (Invitrogen) according to the manufacturer's protocol. For the expression of hDGAT2, SF9 cells (20 L) grown in Sf900II media were infected with hDGAT2 baculovirus at a multiplicity of infection of 1 in a Wave Bioreactor System 20/50P wave bag (GE Healthcare). After 40 hours of infection, the cells were then harvested by centrifugation at 5,000×g. The cell pellets were washed by resuspending in phosphate buffered saline (PBS) and collected by centrifugation at 5,000×g. The cell paste was flash frozen in liquid N2 and stored at −80° C. until needed. All operations below were at 4° C. unless otherwise noted. The cells were resuspended in lysis buffer (50 mM Tris-HCl, pH 8.0, 250 mM sucrose) including 1 mM ethylenediaminetetraacetic acid (EDTA) and the complete protease inhibitor cocktail (Roche Diagnostics) at a ratio of 3 mL buffer per 1 g cell paste. The cells were lysed by dounce homogenizer. The cell debris was removed by centrifugation at 1,000×g for 20 min, and the supernatant was centrifuged at 100,000×g for 1 hour. The resulting pellet was rinsed three times by filling ultracentrifuge tubes to the top with ice cold PBS before decanting. The washed pellet was resuspended with gentle stirring for 1 hour in lysis buffer containing 8 mM 3-[(3-cholamidopropyl)dimethylammonio]-1-propanesulfonate (CHAPS) at a ratio of 1 mL buffer per 1 g of original cell paste and centrifuged again at 100,000×g for 1 hour. The resulting supernatant was aliquotted, flash frozen in liquid N2, and stored at −80° C. until use.
To 1 μL of compounds dissolved in 100% DMSO and spotted at the bottom of each well, 5 μL of 0.04% bovine serum albumin (BSA) (fatty acid free, Sigma Aldrich) was added and the mixture was incubated at room temperature for 15 minutes. hDGAT2 membrane fractions were diluted in 100 mM Hepes-NaOH, pH 7.4, 20 mM MgCl2 containing 200 nM methyl arachidonyl fluorophosphonate (Cayman Chemical, dried from ethyl acetate stock solution under argon gas and dissolved in DMSO as 5 mM stock). 10 μL of this enzyme working solution was added to the plates and incubation continued for 2 hours at room temperature. DGAT2 reactions were initiated by the addition of 4 μL of substrates containing 30 μM [1-^14C]decanoyl-CoA (custom-synthesized by Perkin Elmer, 50 mCi/mmol) and 125 μM 1,2-didecanoyl-sn-glycerol (Avanti Polar Lipids) dissolved in 12.5% acetone. The reaction mixtures were incubated at room temperature for 40 min and the reactions were stopped by addition of 5 μL of 1% H3PO4. After the addition of 45 μL MicroScint-E (Perkin-Elmer), plates were sealed with Top Seal-A covers (Perkin-Elmer) and phase partitioning of substrates and products was achieved using a HT-91100 microplate orbital shaker (Big Bear Automation, Santa Clara, Calif.). Plates were centrifuged at 2,000×g for 1 minute in an Allegra 6R Centrifuge (Beckman Coulter) and then were sealed again with fresh covers before reading in a 1450 Microbeta Wallac Trilux Scintillation Counter (Perkin Elmer). DGAT2 activity was measured by quantifying the generated product [^14C]tridecanoylglycerol in the upper organic phase.
Inhibitors were tested at eleven different concentrations to generate IC50 values for each compound.

[1] = Determination of pKa (capillary electrophoresis, Analiza); format: physicochemical; conditions: most basic pKa, mean
human hepatocytes [2] = test: Intrinsic clearance in human hepatocytes (relay method); format: in vitro ADME; conditions: relay hepatocyte assay, 1 μM test compound, mean +/− Std Dev
Procedure: (§1) Cryopreserved human hepatocytes (Lot DCM from BioreclamationIVT) were used. […] At time 0 and 4 h, 25 μL of hepatocyte suspension was removed from the incubation and added to 50 μL of ice-cold acetonitrile (containing metoprolol, indomethacin, and terfenadine as internal standards) to quench the reaction. The samples were centrifuged (Eppendorf, Hauppauge, N.Y.) at 3000 rpm (1439×g) for 10 min at room temperature, and 50 μL of supernatant was transferred to a clean plate, dried completely, and reconstituted before liquid chromatography/tandem mass spectrometry (LC-MS/MS) analysis. The remaining hepatocyte suspensions in the incubation plate were centrifuged (3000 rpm, 1439×g, 10 min, room temperature). The supernatant of 300 μL was transferred to a clean 24-well plate and stored at −80° C. until the next relay experiment. For the second relay experiment, the supernatant plates were warmed first to room temperature for 30 minutes, then to 37° C. for 30 min, and hepatocytes were added to the samples to give a final cell density of 0.5 million cells/mL. The plates were incubated at 37° C. for 4 h, sampled, and processed as described above. Five relays were performed to give a total incubation time of 20 h, with sampling points at (0, 4, 8, 12, 16 and 20 h). The concentrations of test compound determined at each time point by the LC-MS/MS analysis were used to calculate the intrinsic clearance.

human hepatocytes [3] = test: High throughput determination of intrinsic clearance in human hepatocytes; format: in vitro ADME; conditions: high throughput human hepatocyte assay, 1 μM test compound; mean +/− Std Dev
Procedure: (§2) The incubation was carried out at 37° C. […] The samples were centrifuged (Eppendorf, Hauppauge, N.Y.) at 3000 rpm for 5 min at 4° C.

[4] = Intrinsic clearance in human liver microsomes; format: in vitro ADME; conditions: 1 μM test compound, mean +/− STD Dev; for CLint (+/−STD Dev): human liver microsome assay
Procedure: The incubations were conducted at 37° C. […] (Sorvall R C 3C Plus, Thermo Scientific, Waltham, Mass.).

[5] = target: DGAT2 in human hepatocytes (Homo sapiens (Human), UniProt Q96PD7); test: Determination of IC50 values for DGAT2 inhibitors in human hepatocytes; format: cell-based; conditions: inhibition of DGAT2 in human hepatocytes; geometric mean
Sequence of DGAT2 in human hepatocytes (Q96PD7 whole entry): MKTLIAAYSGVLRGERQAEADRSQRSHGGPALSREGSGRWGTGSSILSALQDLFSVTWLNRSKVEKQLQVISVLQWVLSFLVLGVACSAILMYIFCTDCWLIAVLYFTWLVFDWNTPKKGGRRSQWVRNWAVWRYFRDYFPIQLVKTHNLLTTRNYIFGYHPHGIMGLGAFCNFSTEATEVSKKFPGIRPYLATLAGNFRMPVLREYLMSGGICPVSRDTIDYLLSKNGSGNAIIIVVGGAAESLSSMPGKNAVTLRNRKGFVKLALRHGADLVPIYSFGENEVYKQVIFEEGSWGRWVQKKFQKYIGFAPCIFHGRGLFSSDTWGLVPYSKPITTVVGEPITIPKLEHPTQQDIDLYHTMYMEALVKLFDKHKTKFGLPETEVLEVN
Procedure: For evaluation of the effects of DGAT2 inhibitors in a cell-based setting, cryopreserved human hepatocytes (Lot DOO, Celsis, Baltimore, Md.) were thawed and plated onto type I collagen-coated plates according to the manufacturer's instructions. After 18 hours overnight recovery period, the cells were overlayed with media containing 250 μg/mL Geltrex Basement Membrane Matrix (Thermo Fisher). The following day, media was aspirated and replaced with serum-free Williams Media E (Thermo Fisher) containing 400 μM sodium dodecanoate (Sigma-Aldrich, St. Louis, Mo.) and 2 mM GlutaMAX (Thermo Fisher). […] DGAT2 inhibitors were then added to the desired final concentration. After a 15 minute preincubation, 0.2 μCi [^14C(U)]-glycerol (Perkin Elmer) was added to each well followed by a 3 hour incubation. At this point the media was removed, and the cells lysed via orbital shaking in isopropyl alcohol:tetrahydrofuran (9:1) for 15 minutes prior to centrifugation at 3000 rpm for 10 minutes. Radiolabeled lipids were resolved using a solvent system by thin layer chromatography with the solvent consisting of hexanes:diethyl ether:glacial acetic acid (75:23:2, v/v/v). After separation, radiolabeled lipids were visualized using the Typhoon 9500 phosphorimaging system (GE). The half maximal inhibitory concentrations (IC50 values) were determined by nonlinear regression analysis of the % inhibition dose response curve using GraphPad Prism (GraphPad Software, Inc., La Jolla, Calif.).
Table 5 below provides the IC50 values of selected Examples for inhibition of DGAT2 in human hepatocytes in accordance with the above-described assay. Results are reported as geometric mean IC50 values, with the number of replicates (n) shown.

[6] = Intrinsic clearance in human hepatocytes (relay method); format: in vitro ADME; conditions: cryopreserved human hepatocytes (suspension), relay hepatocyte assay, 1 μM test compound, mean +/− Std Dev
Procedure: as §1

[7] = High throughput determination of intrinsic clearance in human hepatocytes; format: in vitro ADME; conditions: human, pooled cryopreserved human hepatocytes (suspension), high throughput human hepatocyte assay, 1 μM test compound; mean +/− Std Dev
Procedure: as §2

Sequence of human DGAT2 (hDGAT2) (Q96PD7 whole entry): as above

Structure (SMILES)	IC50 (human DGAT2 (hDGAT2))	Basic pKa [1]	CLint (+/−Std Dev) (human hepatocytes [2])	CLint (+/−Std Dev) (human hepatocytes [3])	CLint (+/−STD Dev) [4]	IC50 [5]	pKa [1]	hepatocyte CLint at 1 μM [6]	hepatocyte CLint at 1 μM [7]	microsomal CLint at 1 μM ([4]; human, pooled human liver microsomes, pH 7.4, human liver microsome assay)
CCOc1cccnc1Oc1cncc(-c2ncc(C(=O)N[C@@H]3CCOC3)cn2)c1 [WO2018033832 Ex. 2]	200 nM	2.5	4.9 +/− 0.17 μL/min/million cells	4.7 +/− 0.55 μL/min/10^6 cells	17 ± 1.3 µL/min/mg	–	–	–	–	–
CCOc1cccnc1Oc1cncc(-c2ncc(C(=O)N[C@H]3CCOC3)cn2)c1 [WO2018033832 Ex. 1]	17 nM	2.4	3.9 +/− 0.52 μL/min/million cells	<3.8 +/− 1.1 μL/min/10^6 cells	11 ± 2.9 µL/min/mg	2.8 nM	–	–	–	–
CCOc1cccnc1Oc1cncc(-c2ncc(C(=O)NC3(CO)CCOC3)cn2)c1 (single isomer, unassigned) [WO2018033832 Ex. 6b]	–	2.4	2.9 +/− 0.057 μL/min/million cells	<3.3 +/− 0.49 μL/min/10^6 cells	<11 ± 3.5 µL/min/mg	–	–	–	–	–
CCOc1cccnc1Oc1cncc(-c2ncc(C(=O)NC3(CO)CCOC3)cn2)c1 (single isomer, unassigned) [WO2018033832 Ex. 6a]	–	2.3	3.2 +/− 0.21 μL/min/million cells	<3.8 +/− 1.1 μL/min/10^6 cells	13 ± 2.0 µL/min/mg	–	–	–	–	–
CCOc1cccnc1Oc1cncc(-c2ncc(C(=O)N[C@@H]3CNCC[C@H]3F)cn2)c1 [Example 5, 2-{5-[(3-Ethoxypyridin-2-yl)oxy]pyridin-3-yl}-N-[(3R,4R)-4-fluoropiperidin-3-yl]pyrimidine-5-carboxamide]	–	–	–	–	–	26 nM	7.3	1.9 µL/min/1e6 cells	< 1.9 µL/min/1e6 cells	< 7 µL/min/mg
